From PubChem BioAssay AID588574 (Sanford-Burnham Center for Chemical Genomics, 2011)
The source made the active and inactive calls. The rule behind the calls is not given here.

molecular target: Caspase-3 (Homo sapiens) + Caspase-9 (Homo sapiens) (UniProt P42574+P55211); assay: inhibition of LZ-caspase-9 coupled caspase-3 activity – biochemical, fluorescence, uHTS hits, selectivity assay, dose response (AID 588574); details: LZ-caspase-9/caspase-3 coupled fluorogenic substrate
Sequence (P42574 whole entry, looked up): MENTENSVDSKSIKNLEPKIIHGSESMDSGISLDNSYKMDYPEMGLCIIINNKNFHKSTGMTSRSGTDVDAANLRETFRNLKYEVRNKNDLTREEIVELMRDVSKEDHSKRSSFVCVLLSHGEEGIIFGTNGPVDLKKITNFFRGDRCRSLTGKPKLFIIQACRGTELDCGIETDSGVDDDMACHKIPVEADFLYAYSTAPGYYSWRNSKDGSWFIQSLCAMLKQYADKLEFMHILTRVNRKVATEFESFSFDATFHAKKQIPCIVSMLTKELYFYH
Sequence (P55211 whole entry, looked up): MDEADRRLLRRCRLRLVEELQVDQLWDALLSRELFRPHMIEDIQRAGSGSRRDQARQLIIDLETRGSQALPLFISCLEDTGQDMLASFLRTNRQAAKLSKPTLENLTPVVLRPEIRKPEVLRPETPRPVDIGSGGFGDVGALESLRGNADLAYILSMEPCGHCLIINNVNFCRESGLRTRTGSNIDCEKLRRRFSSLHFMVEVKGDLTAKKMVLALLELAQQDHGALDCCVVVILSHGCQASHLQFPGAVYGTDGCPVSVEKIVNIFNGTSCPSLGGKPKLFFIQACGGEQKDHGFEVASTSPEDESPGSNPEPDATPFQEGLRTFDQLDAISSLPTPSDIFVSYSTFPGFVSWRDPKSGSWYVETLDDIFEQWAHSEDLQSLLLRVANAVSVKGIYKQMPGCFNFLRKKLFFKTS

SMILES	IC50
CCC(=O)N(C1=C(NC)C(=O)c2ccccc2C1=O)C(C)C	24.6 µM
O=C1C(Cl)=C(NCCN2CCOCC2)C(=O)c2ccccc21	23.3 µM
CCN(CC)CCCNC1=C(Cl)C(=O)c2ccccc2C1=O	16.1 µM
CCCc1[nH]nc2c1C(c1ccc(OC)c(CSC3=NCCS3)c1)C(C#N)=C(N)O2 (stereo not drawn)	14.3 µM
O=c1cc(N/N=C/c2ccccc2)[nH]c(=O)[nH]1	19.4 µM
O/C=c1\ccc2cccc3nc(C(F)(F)F)nc1c23	11.8 µM
COc1ccc(NC2=C(NCCO)C(=O)c3ccccc3C2=O)cc1	10.6 µM
CC1=NN(c2ccc(Cl)cc2)C(=O)C1C(c1ccccc1O)c1c(C)[nH]n(-c2ccc(Cl)cc2)c1=O (stereo not drawn)	46.1 µM
CCN(CC)CCOC(=O)c1ccc(N/C=C(/C#N)c2nc(-c3ccc(OC)c(OC)c3)cs2)cc1	> 100 µM (inactive)
CCOC(=O)C1=C(c2ccccc2)NC(N)=NC1c1ccc(OCc2ccc(Cl)cc2)c(OC)c1 (stereo not drawn)	15.8 µM
CC(C)c1ccc(/C=N/Nc2cc(N3CCOCC3)nc(N3CCOCC3)n2)cc1	> 100 µM (inactive)
O=[N+]([O-])c1ccc(N/N=C/c2ccc(O)c(O)c2O)c(S(=O)(=O)N2CCOCC2)c1	20.4 µM
CCN(CC)CCOC(=O)c1ccc(N/C=C(/C#N)c2nc(-c3cc4ccccc4oc3=O)cs2)cc1	> 100 µM (inactive)
Oc1ccc(/C=N\Nc2cc(N3CCOCC3)nc(N3CCOCC3)n2)c(O)c1	57.9 µM
CCN(CC)CCOC(=O)c1ccc(N/C=C(/C#N)c2nc(-c3ccc4c(c3)OCO4)cs2)cc1	> 100 µM (inactive)
Oc1ccc(/C=N/Nc2cc(N3CCCC3)nc(N3CCCC3)n2)cc1O	10.7 µM
Oc1cccc(/C=N/Nc2cc(N3CCCC3)nc(N3CCCC3)n2)c1	12.5 µM
CCOC(=O)C1=C(c2ccccc2)NC(N)=NC1c1ccc(OCc2ccc(C(=O)OC)cc2)cc1 (stereo not drawn)	16 µM
CCCCCCc1cc2cc(-c3nnc(-c4ccccc4OC)o3)c(=O)oc2cc1O	14.7 µM

The next lines start with the values.

IC50	SMILES
8.43 µM	O=C1C(Cl)=C(NCc2cccnc2)C(=O)c2ccccc21
2.23 µM	Cc1[nH]n(-c2ccccc2)c(=O)c1/C=N/Nc1nncc(-c2ccccc2)n1
8.21 µM	CC1=NN(c2ccc(C(F)(F)F)cn2)C(=O)C1
2.51 µM	Oc1ccccc1/C=N/Nc1cc(N2CCCC2)nc(N2CCCC2)n1
4.31 µM	CC1(C)C=C2C(=NN(c3ccccc3)C(N)=C2C#N)CO1
5.44 µM	Oc1ccc(/C=N/Nc2cc(N3CCCC3)nc(N3CCCC3)n2)cc1
3.91 µM	COc1ccc(/C=N/Nc2cc(N3CCCC3)nc(N3CCCC3)n2)cc1
8.49 µM	CC(=O)N(Cc1ccc(F)cc1)C1=C(NCCc2ccccc2)C(=O)c2ccccc2C1=O
8.5 µM	CSc1ccc(C=NNc2ccc(S(=O)(=O)Nc3ccccc3C(=O)O)cc2[N+](=O)[O-])cc1
4.43 µM	CC(C)CCC(C)N=Cc1c(O)n(Cc2ccccc2)c(=O)c2ccccc12 (stereo not drawn)
1.16 µM	COc1ccc(/C=N/Nc2cc(N(C)C)nc(N(C)C)n2)cc1
6.31 µM	CCCCCCc1cc2cc(-c3nnc(-c4ccccc4)o3)c(=O)oc2cc1O
6.91 µM	Cc1ccc(NC2=C(NCCO)C(=O)c3ccccc3C2=O)cc1
3.53 µM	CN(C)c1cc(N/N=C\c2ccccc2)nc(N(C)C)n1
5.3 µM	O=C1C(C2=C(O)c3ccccc3C2=O)=Nc2ccccc21
9.15 µM	O=C(N/N=C/c1cc(Cl)cc([N+](=O)[O-])c1O)NC12CC3CC(CC(C3)C1)C2
6.79 µM	CN(C)c1cc(N/N=C/c2ccccc2C(F)(F)F)nc(N(C)C)n1
10.2 µM	O=C1C(O)=C(O)C(=O)c2ccccc21
6.08 µM	O=C1C(Cl)=C(NCCN2CCCCC2)C(=O)c2ccccc21
